Assay results: patent US10793601B2, “Therapeutic spalt-like transcription factor 4 (SALL4) peptide” (National University of Singapore, priority 2016, dated 2020)
Where “and” joins values, the source holds several entries; their conditions need not be identical. Identical values can stand only once. Ends that are not written are not given here.

Tests used:
[1] = target: T1, RBBp4 (Homo sapiens, UniProt Q09028); assay: Fluorescence polarization (FP) competition with FITC-labelled SALL4 WT peptide; type: binding; details: for IC50: displacement of FITC-SALL4 WT peptide from RBBp4
T1 construct: purchased SinoBiological
Protocol: (§1) FIGS. 3A-3E. Key residues involved in SALL4 (1-12)-RBBp4 binding. […] The difference in the binding free energy (ΔΔGbind) of the alanine mutants (ΔGmutant, Ala7 was mutated to glycine) and wild type (ΔGwild type) was calculated (ΔΔGbind=ΔGmutant−ΔGwild type). ΔΔGbind was tabulated (left) and plotted in a bar chart (right). […] Mutated residues are highlighted in red. The IC50 of each peptide, including WT, was determined by Fluorescence Polarization (FP). Different concentrations of each peptide were titrated into a mixture of 0.04 μM RBBp4 and 0.01 μM of C-labelled FITC-SALL4 WT peptide. Polarization was measured in mP. […] Pep-1 carrier was added to the peptide to facilitate cellular penetration of the peptides.
Peptides were titrated into a master mix of 0.045 μM RBBp4 and […] C-terminal FITC-labelled WT peptide (synthesized by Thermo Scientific). Reactions were incubated at room temperature before the plate was read with an Envision instrument (Perkin Elmer). IC50 values of peptides were determined using Prism (GraphPad).

[2] = test system: SNU398 tumor xenografts; assay: SNU398 xenograft in NSG mice; type: in vivo, NOD/SCID/gamma mice; details: for effect on tumor growth: SNU398 xenograft, tumor volume against time; for tumor weight: mean, tumors resected on day 20, five i.p. injections
Protocol: FIGS. 7A-7E. […] FIG. 7A: 7.2×10^5 SNU398 cells were inoculated subcutaneously into the right flank of NOD/SCID/gamma mice (NSG mice). Tumors were allowed to grow for one week before peptide treatments were administered every alternate day for a total of five injections. FIG. 7B: Tumor growth was documented by plotting tumor volume against time. […] FIG. 7C: Relative size of tumors resected on day 20. FIG. 7D: tumor weight was determined (n=5). […] FIG. 7E: Total RNA was isolated from the resected tumors and expression of PTEN was measured using real-time PCR.
FIGS. 9A-9E. […] FIG. 9A: PEN-FFW treated SNU398 tumor xenografts were compared to that of Sorafenib treated xenografts. FIG. 9B: PEN-FFW treated PLC8024 tumor xenografts were compared to that of Sorafenib treated xenografts. Mice body weight was measured to access toxicity of various peptides. FIG. 9C: Body weight of mice at day 17. FIG. 9D: Differences of body weight compared to day 0 (As indicated by the arrow in far left of FIG. 7A). FIG. 9E: Body weight of mice at day 19th in the experiment shown in FIG. 9A comparing effect of Sorafenib and PEN-FFW. Data represent mean±s.d. (n=5).
All mice were treated in accordance with Responsible Care and Use of Laboratory animals. In the SNU398 in vivo studies, 6-8-week-old female C.B-17 severe combined immunodeficient (SCID) mice (NSG) were inoculated s.c. into the flank with 7.2×10^5 cells in 2:1 PBS/Matrigel (BD Biosciences). The tumours were then allowed to develop to the size of 50-70 mm3 before intraperitoneal injections of the different peptides were given at two to three-day intervals for a total of 5 injections. Mice were randomly grouped in sets of six and treated with PEN (penetratin control), PEN-MUT (mutant control), PEN-WT (wild type control) and PEN-FFW (peptide 47). Tumor volumes were measured every 5 days and tumor weight were measured at the end point. For PEN control, 22.5 mg/kg were given; for PEN-MUT, PEN-WT and PEN-FFW, 35.6 mg/kg, 37 mg/kg and 36 mg/kg were given respectively to the mice according to their body weight Tumor measurements were taken twice weekly using Vernier calipers. Tumor volume was estimated using the following formula: V=0.5×width×width×length. When tumors approached ˜50 mm3, mice were randomized into groups of 5 animals each and received peptides treatment three times weekly by i.p. injection. All statistical analysis was done using a one-way ANOVA and Student's T-test.

[3] = test system: SNU398 cells; assay: Cell viability assay in SNU398 cells; type: cell-based; details: 72 h
Protocol: as §1
FIGS. 5A-5B. Development of a potent therapeutic peptide FFW.
SNU398 was grown in RPMI supplemented with 10% fetal bovine serum (FBS) at 37° C. in a humidified atmosphere of 5% CO2. 3000 cells were seeded in each well of a 96 well plate with 100 μL of medium. Before peptide treatment, cells were washed twice with PBS and treated with different concentrations of peptide in OPTIMEM (LifeTech). Media was added after 4 hrs of incubation at 37° C., and cells incubated for another 68 hrs. Tetrazolium (CellTiter96 AQueous One Solution Cell Proliferation Assay, Promega) was added after 72 hrs incubation with the peptides, and the plate was read at a plate reader at 490 nm after 1 hr of incubation in the dark at 37° C.

T1 sequence (Q09028 whole entry): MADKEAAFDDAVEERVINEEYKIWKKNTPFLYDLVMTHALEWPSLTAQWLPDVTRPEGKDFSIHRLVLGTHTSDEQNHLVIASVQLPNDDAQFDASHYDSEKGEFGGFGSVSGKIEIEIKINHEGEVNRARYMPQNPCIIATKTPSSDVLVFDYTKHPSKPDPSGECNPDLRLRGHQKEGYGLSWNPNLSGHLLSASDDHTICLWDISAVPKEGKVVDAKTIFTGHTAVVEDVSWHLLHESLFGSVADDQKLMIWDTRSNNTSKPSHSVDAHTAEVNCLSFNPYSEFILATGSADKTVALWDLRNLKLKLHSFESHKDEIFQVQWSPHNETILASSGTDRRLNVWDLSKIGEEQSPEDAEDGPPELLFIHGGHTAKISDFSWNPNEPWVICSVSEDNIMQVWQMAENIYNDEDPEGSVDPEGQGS

Substance: Ac-RRKQAKAQHI-NH2 [Peptide 13]
- IC50 [1]: 270 ± 30 nM

Substance: Ac-RRKQAKFQHI-NH2 [Peptide 34]
- IC50 [1]: 170 nM

Substance: Ac-RRKQAKLQHI-NH2 [Peptide 33]
- IC50 [1]: 4400 ± 1100 nM

Substance: Ac-RRKQAKPAHI-NH2 [Peptide 14]
- IC50 [1]: 120 ± 10 nM

Substance: Ac-RRKQAKPLHI-NH2 [Peptide 38]
- IC50 [1]: 460 ± 100 nM

Substance: Ac-RRKQAKPQHA-NH2 [Peptide 16]
- IC50 [1]: 460 ± 200 nM

Substance: Ac-RRKQAKPQWI-NH2 [Peptide 41]
- IC50 [1]: 120 nM
- enhancement in binding affinity over that of peptide 6 ([1]; ratio of FP IC50 values): 3 fold

Substance: Ac-RRKQRKPQHI-NH2 [Peptide 26]
- IC50 [1]: 460 ± 100 nM

Substance: Ac-RRRQAKPQHI-NH2 [Peptide 6]
- IC50 [1]: 360 nM

Substance: Ac-SRRKQAKPQHI-NH2 [Peptide 5]
- IC50 [1]: 600 nM

Substance: RQIKIWFQNRRMKWKK [PEN]
- effect on tumor growth [2]: neither peptide was able to inhibit tumor growth
- tumor weight [2]: 1550.78 mg

Substance: RQIKIWFQNRRMKWKKMSARAQAKPQHI [PEN-MUT]
- effect on tumor growth [2]: neither peptide was able to inhibit tumor growth
- tumor weight [2]: 1273.46 mg
- EC50 [3]: > 100000 nM

Substance: RQIKIWFQNRRMKWKKMSRRKQAKPQHI [PEN-WT]
- effect on tumor growth [2]: markedly impaired tumor growth
- tumor weight [2]: 563.46 mg and 564 mg
- EC50 [3]: 30000 nM
